Consider three compounds from US5200549A, “Antipsoriatic agents” (Hoffman-La Roche Inc., priority 1991, dated 1993).

One experiment relates to human keratinocytes. The experiment in a line: Inhibition of proliferation of cultured human keratinocytes (cell count by Coulter Counter). The format is cell-based. Conditions: Keratinocyte, 168 h, seven days, triplicate, read-out: Percent Inhibition on Keratinocyte Proliferation; for inhibition at 1 µM: 10^-6 M; for inhibition at 0.1 µM: 10^-7 M; for inhibition at 0.01 µM: 10^-8 M; for inhibition at 0.0001 µM: 10^-10 M. The method, then:
Human neonatal foreskins were collected by circumcision and placed into tubes containing DMEM media. Upon arrival at the laboratory the foreskins were mechanically trimmed of excess dermis and treated with a solution of trypsin/EDTA (0.05%/0.02%) at 4° C. overnight. The epidermis was stripped from the dermis, agitated in buffered saline to remove basal keratinocytes and to separate the stratum corneum which was subsequently removed. The separated cells were centrifuged, resuspended in media, counted and the keratinocytes were plated onto a plain plastic culture dish.
The keratinocytes were plated at a density of about 10^5 cells/cm^2in 35 cm^2 dishes. The cells were grown in keratinocyte growth media (KGM®-modified MCDB 153 containing antibiotics by Clonetics of Boulder, Colo.) according to protocols originally developed by Boyce, S. T. and Ham, R. G., J. of Tissue Culture Meth. 9:83-93 (1985). The cells were grown for 5-10 days and changed every 2-3 days with keratinocyte growth media containing 1.5 mM CaCl2 (hereinafter KGM®/1.5 mM CaCl2) until cells reached a 75% confluency by visual observation. All the cultures were incubated in a humidified atmosphere of 5% CO2 at 37° C.
To establish keratinocyte cell cultures as antiproliferative assays, cells prepared as described in the foregoing were washed with PBS and removed from the culture surface with a solution of trypsin/EDTA (0.25%/0.03%). The removed cells were then centrifuged, resuspended in the KGM®/1.5 mM CaCl2 and counted. The cells were then distributed to 6 well plates at 100,000 cells per well as described in the foregoing. […] After 24-48 hours KGM®/1.5 mM CaCl2 which contained test compounds was added to the cells. The cultures maintained for seven days. The media was changed every 2-3 days.
Solutions of the test compounds were prepared as follows: 1 milligram quantities were received in amber glass vials, and stored at -20° C. Sufficient 100% ethanol was added directly to vials to obtain a millimolar solution that was subsequently aliquoted into small amber vials, overlayed with argon gas and stored at -20° C. Each stock solution was thawed once, used and discarded. Aliquots from the stock solutions were diluted directly into medium and then serially diluted from micromolar to 10^-12 M concentrations. Dilutions from 10^-7 M to 10^-12 M had ethanol added for a final concentration of 0.1%. Stock solutions were used within one month. Control cultures were treated with 0.1% ethanol.
For each experiment every culture well received the same number of cells from the same culture source. At the termination of the experiment the number of cells per was determined by the following procedure. Wells were washed twice with PBS and then incubated for approximately 10-20 minutes at 37° C. with a trypsin/EDTA solution (0.25%/03%). PBS plus 0.1% soybean trypsin inhibitor was added and the cells were suspended. An aliquot of the cells was placed into isotonic buffered saline and counted on an electronic particle counter (e.g. Coulter Counter® device by Coulter Electronics of Hialeah, Fla.).
Quantification of proliferation was done by enumerating the number of keratinocyte cells in each well using the Coulter Counter®. Results shown in Table 1 below show the percent reduction of keratinocyte cell number calculated for each of 4 concentrations of test compounds tested according to the formula: [formula]
For statistical analysis, the mean was calculated for all wells in each treatment group. Standard error was determined by nonbiased analysis using a value for the number of wells in each group, preferably N=3.
Each compound was tested in triplicate. The control (ETOH), as noted above, was 0.1% ethanol.

Experiment [1] relates to Cholesterol Biosynthesis in HepG2 Cells. Put plainly: Inhibition of cholesterol biosynthesis in HepG2 cells (3H2O incorporated into cholesterol). Format: cell-based. As to conditions: for activity as cholesterol biosynthesis inhibitors: HepG2 cells, in words; for IC50: Homo sapiens. As for the experimental part:
HepG2 cells are maintained in 175 cm^2 T flasks in Darlington Medium supplemented with 10% fetal bovine serum (FBS). Darlington Medium consists of 3 parts Minimal Essential Medium, 1 part Waymouth's MAB87/3 medium and 3×10^-8 M sodium selenite. This medium is supplemented with 100 U/ml penicillin, 100 ug/ml streptomycin and 2.5 ug/ml Fungizone. In order to establish optimal conditions for the whole cell cholesterol biosynthesis assay, preliminary experiments were performed. 0.25, 0.5, 0.75 or 1×10^6 cells were seeded into 6 well cluster plates in 2 ml of fully supplemented Darlington Medium. The serum supplemented medium was aspirated after 72 hours and replaced with serum free Darlington Medium with antibiotics. After 24, 48 or 72 hours serum free, the cells received either 0.5 or 1 mCi ^3 H2 O/ml medium. This medium was aspirated after 24 hours and the cells were washed twice with phosphate buffered saline. The cells were frozen overnight at -20° C. after which they were harvested from the wells with 1 ml of trypsin-EDTA. Extracted lipids were separated on an HPLC system; cholesterol peaks were collected and counted in a scintillation counter. Results are expressed as the dpm ^3 H2 O incorporated into cholesterol.
In the screening assay the cells received compounds at various concentrations concommitantly with ^3 H2 O. When ethanol was the vehicle, the final ethanol concentration was 0.5%, and control wells with that concentration of ethanol were used in each experiment. Results are expressed as the percent dpm ^3 H2 O incorporated into cholesterol in treated vs control wells. IC50 values are calculated using a linear regression analysis.

With `C[C@H]1C=C2C=C[C@H](C)[C@H](CC[C@@H]3C[C@@H](O)CC(=O)O3)[C@H]2[C@@H](OC(=O)C(C)(C)Oc2ccc(Cl)cc2)C1` [A, 2-(4-chlorophenoxy)-2-methylpropionic acid [1S-[1α,3α,7β,8β(2R*, 4R*),8aβ]]-1,2,3,7,8,8a-hexahydro-3,7-dimethyl-8-[2-[tetrahydro-4-hydroxy-6-oxo-2H-pyran-2-yl]ethyl]-1-naphthalenyl ester], in the experiment with human keratinocytes, the inhibition at 1 µM is 49.7%, the inhibition at 0.1 µM worked out at 15.2%, the inhibition at 0.01 µM worked out at 6.28% and the inhibition at 0.0001 µM was 20.9%. Further, the “activity as cholesterol biosynthesis inhibitors” value in experiment [1] was “show activity as cholesterol biosynthesis inhibitors”. In experiment [1] (HepG2, Test I), this compound returned a half-maximal inhibitory concentration (IC50) of 30 nM. Moreover, the concentration for half-maximal inhibition (IC50) in experiment [1] (HepG2, Test II) was found to be 500 nM. For the same compound, the half-inhibitory concentration (IC50) in experiment [1] (HepG2, Test III) was 101 nM.

On to `CC[C@H](C)C(=O)O[C@H]1C[C@@H](C)C=C2C=C[C@H](C)[C@H](CC[C@@H]3C[C@@H](O)CC(=O)O3)[C@H]21` [mevinolin, reference compound], for which the IC50 in experiment [1] (HepG2, Test I) is 20 nM; in experiment [1] (HepG2, Test II) it was 100 nM; in experiment [1] (HepG2, Test III), 76 nM; in experiment [1] (HepG2, Test IV), 8 nM.

Turning to `C[C@H]1C=C2C=C[C@H](C)[C@H](CC[C@@H]3C[C@@H](O)CC(=O)O3)[C@H]2[C@@H](OC(=O)C(C)(C)C(C)(F)F)C1` [Compound B, 3,3-difluoro-2,2-dimethylbutanoic acid, [1S-[1α,3α,7β,8β(2R*,4R*)8aβ]]-8-[2-[tetrahydro-4-hydroxy-6-oxo-2H-pyran-2-yl]ethyl]-1,2,3,7,8,8a-hexahydro-3,7-dimethyl-1-naphthalenyl ester], in the experiment on human keratinocytes, the inhibition at 1 µM was determined as 95.8%, the inhibition at 0.1 µM was determined as 31.2%, the inhibition at 0.01 µM amounted to 14.6% and the inhibition at 0.0001 µM worked out at 18%. Also, the “activity as cholesterol biosynthesis inhibitors” value in experiment [1] is reported as “show activity as cholesterol biosynthesis inhibitors”. In addition, inhibition in experiment [1] (HepG2, Test IV) was half-maximal at 5 nM (IC50).

Broadly, the IC50 is the midpoint of a concentration-inhibition curve.
